Key:
Type in all cases: in vivo
Parameters in all cases: key: 0 is no effect; 10 is complete control
[1] = tested on: bedstraw (Galium aparine); assay: Test B pre-/postemergence; conditions: for Bedstraw plant response rating: Preemergence
Source text: (§1) Seeds of bedstraw (Galium aparine), blackgrass (Alopecurus myosuroides), broadleaf signalgrass (Brachiaria decumbens), cocklebur (Xanthium strumarium), corn (Zea mays), crabgrass (Digitaria sanguinalis), giant foxtail (Setaria faberii), lambsquarters (Chenopodium album), momingglory (Ipomoea hederacea), pigweed (Amaranthus retroflexus), rape (Brassica napus), soybean (Glycine max), sugar beet (Beta vulgaris), velvetleaf (Abutilon theophrasti), wheat (Triticum aestivum), wild oat (Avena fatua) and purple nutsedge (Cyperus rotundus) tubers were planted and treated preemergence with test chemicals formulated in a non-phytotoxic solvent mixture which included a surfactant.
(§2) At the same time, these crop and weed species were also treated with postemergence applications of test chemicals formulated in the same manner. Plants ranged in height from 2 to 18 cm (1- to 4-leaf stage) for postemergence treatments. Plant species in the flood test consisted of rice (Oryza sativa), smallflower flatsedge (Cyperus difformis), duck salad (Heteranthera limosa) and bamyardgrass (Echinochloa crus-galli) grown to the 2-leaf stage for testing. Treated plants and controls were maintained in a greenhouse for twelve to sixteen days, after which all species were compared to controls and visually evaluated. Plant response ratings, summarized in Table B, are based on a scale of 0 to 10 where 0 is no effect and 10 is complete control. A dash (−) response means no test result.

[2] = tested on: blackgrass (Alopecurus myosuroides); assay: Test B pre-/postemergence; conditions: for Blackgrass plant response rating: Preemergence
Source text: as §1, §2

[3] = tested on: broadleaf signalgrass (Brachiaria decumbens); assay: Test B pre-/postemergence; conditions: for B. signalgrass plant response rating: Preemergence
Source text: as §1, §2

[4] = tested on: cocklebur (Xanthium strumarium); assay: Test B pre-/postemergence; conditions: for Cocklebur plant response rating: Preemergence
Source text: as §1, §2

corn (Zea mays) = assay: Test B pre-/postemergence; conditions: for Corn plant response rating: Preemergence
Source text: as §1, §2

[5] = tested on: crabgrass (Digitaria sanguinalis); assay: Test B pre-/postemergence; conditions: for Crabgrass plant response rating: Preemergence
Source text: as §1, §2

[6] = tested on: giant foxtail (Setaria faberii); assay: Test B pre-/postemergence
Source text: as §1, §2

[7] = tested on: momingglory (Ipomoea hederacea); assay: Test B pre-/postemergence
Source text: as §1, §2

[8] = tested on: pigweed (Amaranthus retroflexus); assay: Test B pre-/postemergence
Source text: as §1, §2

[9] = tested on: purple nutsedge (Cyperus rotundus); assay: Test B pre-/postemergence
Source text: as §1, §2

rape (Brassica napus) = assay: Test B pre-/postemergence
Source text: as §1, §2

soybean (Glycine max) = assay: Test B pre-/postemergence
Source text: as §1, §2

[10] = tested on: sugar beet (Beta vulgaris); assay: Test B pre-/postemergence
Source text: as §1, §2

[11] = tested on: velvetleaf (Abutilon theophrasti); assay: Test B pre-/postemergence
Source text: as §1, §2

[12] = tested on: wheat (Triticum aestivum); assay: Test B pre-/postemergence
Source text: as §1, §2

wild oat (Avena fatua) = assay: Test B pre-/postemergence
Source text: as §1, §2

[13] = tested on: bamyardgrass (Echinochloa crus-galli); assay: Test B flood test
How it was run: (§3)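 Flood test on plants grown to the 2-leaf stage; treated plants kept in greenhouse twelve to sixteen days, then visually rated against controls on a 0 (no effect) to 10 (complete control) scale.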

[14] = tested on: duck salad (Heteranthera limosa); assay: Test B flood test
How it was run: as §3

rice (Oryza sativa) = assay: Test B flood test
How it was run: as §3

[15] = tested on: smallflower flatsedge (Cyperus difformis); assay: Test B flood test
How it was run: as §3

[16] = Rate 250 g/ha, Postemergence (so in the source)
[17] = Rate 62 g/ha, Postemergence (flood test)
[18] = Rate 125 g/ha, Postemergence, flood test
[19] = Rate 250 g/ha, Postemergence (flood test species)
[20] = Rate 125 g/ha, Postemergence section (flood test species)

## Cc1cnc(-c2ccccc2F)nc1Cc1cccc(C#N)c1 [Compound 37]
[1]; Rate 62 g/ha, Postemergence
  Plant response rating, Bedstraw: 1
[1]; Rate 62 g/ha
  Bedstraw plant response rating: 0
[1]; Rate 125 g/ha, Postemergence
  Plant response rating, Bedstraw: 1
[1]; Rate 125 g/ha
  Bedstraw plant response rating: 0
[1]; [16]
  Plant response rating, Bedstraw: 0
[2]; Rate 62 g/ha, Postemergence
  Plant response rating, Blackgrass: 0
[2]; Rate 62 g/ha
  Blackgrass plant response rating: 0
[2]; Rate 125 g/ha, Postemergence
  Plant response rating, Blackgrass: 0
[2]; Rate 125 g/ha
  Blackgrass plant response rating: 0
[2]; Rate 250 g/ha, Postemergence
  Plant response rating, Blackgrass: 0
[2]; [16]
  Plant response rating, Blackgrass: 0
[3]; Rate 62 g/ha, Postemergence
  Plant response rating, B. signalgrass: 0
[3]; Rate 62 g/ha
  B. signalgrass plant response rating: 0
[3]; Rate 125 g/ha, Postemergence
  Plant response rating, B. signalgrass: 0
[3]; Rate 125 g/ha
  B. signalgrass plant response rating: 0
[3]; Rate 250 g/ha, Postemergence
  Plant response rating, B. signalgrass: 0
[3]; Rate 250 g/ha, Postemergence as printed in head r139 (second section for compounds 26-50)
  Plant response rating, B. signalgrass: 0
[4]; Rate 62 g/ha, Postemergence
  Plant response rating, Cocklebur: 1
[4]; Rate 62 g/ha
  Cocklebur plant response rating: 0
[4]; Rate 125 g/ha, Postemergence
  Plant response rating, Cocklebur: 2
[4]; Rate 125 g/ha
  Cocklebur plant response rating: 0
[4]; Rate 250 g/ha, Postemergence
  Plant response rating, Cocklebur: 3
[4]; [16]
  Plant response rating, Cocklebur: 0
Corn (Zea mays); Rate 62 g/ha, Postemergence
  Plant response rating, Corn: 1
Corn (Zea mays); Rate 62 g/ha
  Corn plant response rating: 0
Corn (Zea mays); Rate 125 g/ha, Postemergence
  Plant response rating, Corn: 1
Corn (Zea mays); Rate 125 g/ha
  Corn plant response rating: 0
Corn (Zea mays); Rate 250 g/ha, Postemergence
  Plant response rating, Corn: 1
Corn (Zea mays); [16]
  Plant response rating, Corn: 0
[5]; Rate 62 g/ha, Postemergence
  Plant response rating, Crabgrass: 0
[5]; Rate 62 g/ha
  Crabgrass plant response rating: 0
[5]; Rate 125 g/ha, Postemergence
  Plant response rating, Crabgrass: 0
[5]; Rate 125 g/ha
  Crabgrass plant response rating: 0
[5]; Rate 250 g/ha, Postemergence
  Plant response rating, Crabgrass: 1
[5]; [16]
  Plant response rating, Crabgrass: 0
[6]; Rate 62 g/ha, Postemergence
  Plant response rating, Giant foxtail: 0
[6]; Rate 62 g/ha, Preemergence
  Giant foxtail plant response rating: 0
[6]; Rate 125 g/ha, Postemergence
  Giant foxtail plant response rating: 0
[6]; Rate 125 g/ha, Preemergence
  Giant foxtail plant response rating: 0
[6]; Rate 250 g/ha, Postemergence
  Plant response rating, Giant foxtail: 1
[6]; [16]
  Plant response rating, Giant foxtail: 0
[7]; Rate 62 g/ha, Postemergence
  Plant response rating, Morningglory: 1
[7]; Rate 62 g/ha, Preemergence
  Morningglory plant response rating: 0
[7]; Rate 125 g/ha, Postemergence
  Morningglory plant response rating: 1
[7]; Rate 125 g/ha, Preemergence
  Morningglory plant response rating: 0
[7]; Rate 250 g/ha, Postemergence
  Plant response rating, Morningglory: 1
[7]; [16]
  Plant response rating, Morningglory: 0
[8]; Rate 62 g/ha, Postemergence
  Plant response rating, Redroot pigweed: 1
[8]; Rate 62 g/ha, Preemergence
  Redroot pigweed plant response rating: 0
[8]; Rate 125 g/ha, Postemergence
  Redroot pigweed plant response rating: 1
[8]; Rate 125 g/ha, Preemergence
  Redroot pigweed plant response rating: 0
[8]; Rate 250 g/ha, Postemergence
  Plant response rating, Redroot pigweed: 7
[8]; [16]
  Plant response rating, Redroot pigweed: 0
[9]; Rate 62 g/ha, Postemergence
  Plant response rating, Nutsedge: 0
[9]; Rate 62 g/ha, Preemergence
  Nutsedge plant response rating: 0
[9]; Rate 125 g/ha, Postemergence
  Nutsedge plant response rating: 0
[9]; Rate 125 g/ha, Preemergence
  Nutsedge plant response rating: 0
[9]; Rate 250 g/ha, Postemergence
  Plant response rating, Nutsedge: 0
[9]; [16]
  Plant response rating, Nutsedge: 0
Rape (Brassica napus); Rate 62 g/ha, Postemergence
  Plant response rating, Rape: 1
Rape (Brassica napus); Rate 62 g/ha, Preemergence
  Rape plant response rating: 0
Rape (Brassica napus); Rate 125 g/ha, Postemergence
  Rape plant response rating: 3
Rape (Brassica napus); Rate 125 g/ha, Preemergence
  Rape plant response rating: 0
Rape (Brassica napus); Rate 250 g/ha, Postemergence
  Plant response rating, Rape: 4
Rape (Brassica napus); [16]
  Plant response rating, Rape: 0
Soybean (Glycine max); Rate 62 g/ha, Postemergence
  Plant response rating, Soybean: 0
Soybean (Glycine max); Rate 62 g/ha, Preemergence
  Soybean plant response rating: 0
Soybean (Glycine max); Rate 125 g/ha, Postemergence
  Soybean plant response rating: 0
Soybean (Glycine max); Rate 125 g/ha, Preemergence
  Plant response rating, Soybean: 0
Soybean (Glycine max); Rate 250 g/ha, Postemergence
  Plant response rating, Soybean: 0
Soybean (Glycine max); [16]
  Plant response rating, Soybean: 0
[10]; Rate 62 g/ha, Postemergence
  Plant response rating, Sugarbeets: 1
[10]; Rate 62 g/ha, Preemergence
  Sugarbeets plant response rating: 0
[10]; Rate 125 g/ha, Postemergence
  Sugarbeets plant response rating: 5
[10]; Rate 125 g/ha, Preemergence
  Plant response rating, Sugarbeets: 0
[10]; Rate 250 g/ha, Postemergence
  Plant response rating, Sugarbeets: 5
[10]; [16]
  Plant response rating, Sugarbeets: 0
[11]; Rate 62 g/ha, Postemergence
  Plant response rating, Velvetleaf: 0
[11]; Rate 62 g/ha, Preemergence
  Velvetleaf plant response rating: 0
[11]; Rate 125 g/ha, Postemergence
  Velvetleaf plant response rating: 0
[11]; Rate 125 g/ha, Preemergence
  Plant response rating, Velvetleaf: 0
[11]; Rate 250 g/ha, Postemergence
  Plant response rating, Velvetleaf: 1
[11]; [16]
  Plant response rating, Velvetleaf: 0
[12]; Rate 62 g/ha, Postemergence
  Wheat plant response rating: 0
[12]; Rate 62 g/ha, Preemergence
  Wheat plant response rating: 0
[12]; Rate 125 g/ha, Postemergence
  Wheat plant response rating: 0
[12]; Rate 125 g/ha, Preemergence
  Plant response rating, Wheat: 0
[12]; Rate 250 g/ha, Postemergence
  Plant response rating, Wheat: 0
[12]; [16]
  Plant response rating, Wheat: 0
Wild oat (Avena fatua); Rate 62 g/ha, Postemergence
  Wild oats plant response rating: 0
Wild oat (Avena fatua); Rate 62 g/ha, Preemergence
  Wild oats plant response rating: 0
Wild oat (Avena fatua); Rate 125 g/ha, Postemergence
  Wild oats plant response rating: 0
Wild oat (Avena fatua); Rate 125 g/ha, Preemergence
  Plant response rating, Wild oats: 0
Wild oat (Avena fatua); Rate 250 g/ha, Postemergence
  Plant response rating, Wild oats: 0
Wild oat (Avena fatua); [16]
  Plant response rating, Wild oats: 0
[13]; [17]
  Plant response rating, Barnyardgrass: 0
[13]; [18]
  Plant response rating, Barnyardgrass: 0
[13]; [19]
  Plant response rating, Barnyardgrass: 0
[14]; [17]
  Plant response rating, Ducksalad: 0
[14]; [18]
  Plant response rating, Ducksalad: 0
[14]; [19]
  Plant response rating, Ducksalad: 0
Rice (Oryza sativa); [17]
  Plant response rating, Rice: 0
Rice (Oryza sativa); [20]
  Rice plant response rating: 0
Rice (Oryza sativa); [19]
  Plant response rating, Rice: 0
[15]; [17]
  Plant response rating, S. Flatsedge: 0
[15]; [20]
  S. Flatsedge plant response rating: 0
[15]; [19]
  Plant response rating, S. Flatsedge: 0

From patent publication US6525001B1, “Substituted pyrimidine and pyridine herbicides” (Mid-American Commercialization Corporation, priority 1997, dated 2003)
